Experiments:
[1] = test system: WNV; experiment: WNV antiviral assay; assay type: cell-based, West Nile Virus; settings: for CC50: read-out: TC50 (the source's name)
Source text: (§1) The use of N-(2,3-dihydro-1H-inden-5-yl)-2-(4-oxo-3-phenyl-3,4-dihydroquinazolin-2-yl)thio) acetamide, a compound employed according to the present disclosure, for treating West Nile Virus has been disclosed. For example, please see Chung et al. A Cell Based Assay for the Identification of Lead Compounds with Anti-Viral Activity Against West Nile Virus, Probe Reports from the NIH Molecular Libraries Program[Internet]. Bethesda (Md.): National Center for Biotechnology Information (US); 2010-2010 Feb. 27 [updated 2010 Oct. 4], PMID: 21433390 [PubMed].

[2] = molecular target: HCV Con1b (Replicon); experiment: HCV Con1b (Replicon) Luciferase end-point; assay type: cell-based, Hepatitis C Virus; settings: for CC50: read-out: TC50 (the source's name)
[3] = test system: HCV Con 1b (Replicon); experiment: HCV Con 1b (Replicon) RNA end-point; assay type: cell-based, Hepatitis C Virus; settings: HCV Con 1b replicon, RNA end-point; for CC50: read-out: TC50 (the source's name)
Protocol: The reduction in HCV was determined with two assays using viral RNA endpoints. […] This cell line expresses a subgenomic section of the HCV genome containing NS2a, NS2b, NS3a, NS3b, NS4a, NS4b, NS5a and NS5b.

[4] = test system: JEV; experiment: JEV cell based virus CPE reduction assay; parameters: species or system Japanese Encephalitis Virus
Source text: as §1

`O=C(CSc1nc2ccccc2c(=O)n1-c1ccccc1F)Nc1ccc2c(c1)CCC2` [Example C11, 2-[3-(2-fluorophenyl)-4-oxo(3-hydroquinazolin-2-ylthio)]-N-indan-5-ylacetamide] gave an IC50 [1] of 5 to 25 µM and a CC50 [1] of no less than 100 µM.

Compound `O=C(CSc1nc2ccccc2c(=O)n1-c1ccc(F)c(Cl)c1)Nc1ccc2c(c1)CCC2` [Example C12, 2-[3-(3-chloro-4-fluorophenyl)-4-oxo(3-hydroquinazolin-2-ylthio)]-N-indan-5-ylacetamide] has an IC50 [1] of 5 to 25 µM, a CC50 [1] of no less than 100 µM and an IC50 [2] of 1 to 5 µM. It also gave a CC50 [2] of no less than 100 µM, an IC50 [3] of less than 1 µM and a CC50 [3] of 50 to 100 µM.

Work on `O=C(CSc1nc2ccccc2c(=O)n1-c1ccc(Cl)c(Cl)c1)Nc1ccc2c(c1)CCC2` [Example C13, 2-[3-(3,4-dichlorophenyl)-4-oxo(3-hydroquinazolin-2-ylthio)]-N-indan-5-ylacetamide] yielded an IC50 [1] of 5 to 25 µM, a CC50 [1] of no less than 100 µM and an IC50 [2] of 1 to 5 µM. The CC50 [2] was 50 to 100 µM.

With `Cc1cccc2c(=O)n(-c3ccccc3)c(SCC(=O)Nc3ccc4c(c3)CCC4)nc12` [Example C16, N-indan-5-yl-2-(8-methyl-4-oxo-3-phenyl(3-hydroquinazolin-2-ylthio))acetamide] the IC50 [2] was 1 to 5 µM and the CC50 [2] was 10 to 50 µM.

For `O=C(CSc1nc2ccccc2c(=O)n1-c1ccc(Cl)c(Cl)c1)Nc1cccc2c1CCC2` [Example C18, 2-[3-(3,4-dichlorophenyl)-4-oxo(3-hydroquinazolin-2-ylthio)]-N-indan-4-ylacetamide], the IC50 [2] was 5 to 25 µM and the CC50 [2] was 50 to 100 µM.

`O=C(CSc1nc2ccccc2c(=O)n1-c1ccc(Cl)c(Cl)c1)Nc1ccc2c(c1)OCO2` [Example C19, N-(2H-benzo[d]1,3-dioxolen-5-yl)-2-[3-(3,4-dichlorophenyl)-4-oxo(3-hydroquinazolin-2-ylthio)]acetamide] gave an IC50 [2] of 1 to 5 µM and a CC50 [2] of no less than 100 µM.

`O=C(CSc1nc2ccccc2c(=O)n1-c1cc(Cl)cc(Cl)c1)Nc1ccc2c(c1)CCC2` [Example C20, 2-[3-(3,5-dichlorophenyl)-4-oxo(3-hydroquinazolin-2-ylthio)]-N-indan-5-ylacetamide] showed an IC50 [1] of 1 to 5 µM and a CC50 [1] of no less than 100 µM.

`O=C(CCSc1nc2ccccc2c(=O)n1-c1ccc(F)c(Cl)c1)Nc1ccc2c(c1)CCC2` [Example C21, 3-[3-(3-chloro-4-fluorophenyl)-4-oxo(3-hydroquinazolin-2-ylthio)]-N-indan-5-ylpropanamide] was tested, and the IC50 [2] was 5 to 25 µM and the CC50 [2] was 10 to 50 µM.

With `O=C(CSc1nc2ccccc2c(=O)n1-c1ccc(F)c(Cl)c1)Nc1cccc2c1CCC2` [Example C22, 2-[3-(3-chloro-4-fluorophenyl)-4-oxo(3-hydroquinazolin-2-ylthio)]-N-indan-4-ylacetamide] the IC50 [2] was 1 to 5 µM and the CC50 [2] was 10 to 50 µM.

`O=C(CSc1nc2ccccc2c(=O)n1-c1ccc(F)c(Cl)c1)Nc1ccc2c(c1)OCO2` [Example C23, N-(2H-benzo[3,4-d]1,3-dioxolan-5-yl)-2-[3-(3-chloro-4-fluorophenyl)-4-oxo(3-hydroquinazolin-2-ylthio)]acetamide] showed an IC50 [2] of 5 to 25 µM and a CC50 [2] of no less than 100 µM.

In the case of `O=C(CCSc1nc2ccccc2c(=O)n1-c1cc(F)c(F)c(F)c1)Nc1ccc2c(c1)CCC2` [Example C25, N-indan-5-yl-3-[4-oxo-3-(3,4,5-trifluorophenyl)(3-hydroquinazolin-2-ylthio)]propanamide], the IC50 [4] is reported as 5 to 25 µM and the CC50 ([4]; read-out: TC50 (the source's name)) is reported as no less than 100 µM.

With `O=C(CSc1nc2ccccc2c(=O)n1-c1ccc(F)c(F)c1)Nc1cccc2c1CCC2` [Example C26, 2-[3-(3,4-difluorophenyl)-4-oxo(3-hydroquinazolin-2-ylthio)]-N-indan-4-ylacetamide] the IC50 [2] was less than 1 µM, the CC50 [2] was no less than 100 µM and the IC50 [3] was less than 1 µM. The CC50 [3] was 50 to 100 µM.

`O=C(CSc1nc2ccccc2c(=O)n1-c1ccc(F)c(F)c1)Nc1ccc2c(c1)CCC2` [Example C27, 2-[3-(3,4-difluorophenyl)-4-oxo(3-hydroquinazolin-2-ylthio)]-N-indan-5-ylacetamide] was tested, and the IC50 [1] was 5 to 25 µM, the CC50 [1] was no less than 100 µM and the IC50 [2] was 5 to 25 µM. The CC50 [2] was no less than 100 µM.

Work on `O=C(CSc1nc2cccc(F)c2c(=O)n1-c1ccccc1)NC1CCCc2ccccc21` (stereo not shown) [Example C28, 2-(5-fluoro-4-oxo-3-phenyl(3-hydroquinazolin-2-ylthio))-N-(1,2,3,4-tetrahydronaphthyl)acetamide] yielded an IC50 [2] of 5 to 25 µM and a CC50 [2] of no less than 100 µM.

Work on `O=C(CSc1nc2cccc(F)c2c(=O)n1-c1ccc(Cl)c(F)c1)Nc1ccc2c(c1)CCC2` [Example C29, 2-[3-(4-chloro-3-fluorophenyl)-5-fluoro-4-oxo(3-hydroquinazolin-2-ylthio)]-N-indan-5-ylacetamide] yielded an IC50 [2] of 1 to 5 µM and a CC50 [2] of no less than 100 µM.

`O=C(CSc1nc2cccc(F)c2c(=O)n1-c1cc(F)c(F)c(F)c1)Nc1ccc2c(c1)CCC2` [Example C30, 2-[5-fluoro-4-oxo-3-(3,4,5-trifluorophenyl)(3-hydroquinazolin-2-ylthio)]-N-indan-5-ylacetamide] was tested, and the IC50 [2] was 1 to 5 µM and the CC50 [2] was 50 to 100 µM.

Compound `O=C(CSc1nc2cccc(F)c2c(=O)n1-c1ccc(Cl)c(Cl)c1)Nc1ccc2c(c1)CCC2` [Example C31] has an IC50 [1] of 5 to 25 µM, a CC50 [1] of no less than 100 µM and an IC50 [2] of less than 1 µM. It also gave a CC50 [2] of 10 to 50 µM.

Work on `O=C(CSc1nc2ccccc2c(=O)n1-c1ccccc1)Nc1ccc2c(c1)CCC2` [Example C32, N-indan-5-yl-2-(4-oxo-3-phenyl(3-hydroquinazolin-2-ylthio))acetamide] yielded an IC50 [1] of 5 to 25 µM and a CC50 [1] of no less than 100 µM.

With `Cc1cc(-n2c(SCC(=O)Nc3ccc4c(c3)CCC4)nc3ccccc3c2=O)ccc1Cl` [Example C33, 2-[3-(4-chloro-3-methylphenyl)-4-oxo(3-hydroquinazolin-2-ylthio)]-N-indan-5-ylacetamide] the IC50 [1] was 1 to 5 µM and the CC50 [1] was 50 to 100 µM.

For `Cc1cc(-n2c(SCC(=O)Nc3ccc4c(c3)CCC4)nc3ccccc3c2=O)ccc1F` [Example C34, 2-[3-(4-fluoro-3-methylphenyl)-4-oxo(3-hydroquinazolin-2-ylthio)]-N-indan-5-ylacetamide], the IC50 [1] was 5 to 25 µM and the CC50 [1] was no less than 100 µM.

`O=C(CSc1nc2ccccc2c(=O)n1-c1cc(F)c(F)c(F)c1)Nc1ccc2c(c1)CCC2` [Example C35, N-indan-5-yl-2-[4-oxo-3-(3,4,5-trifluorophenyl)(3-hydroquinazolin-2-ylthio)]acetamide] showed an IC50 [1] of 5 to 25 µM and a CC50 [1] of no less than 100 µM.

With `Cc1ccc(-n2c(SCC(=O)Nc3ccc4c(c3)CCC4)nc3ccccc3c2=O)cc1Br` [Example C36, 2-[3-(3-bromo-4-methylphenyl)-4-oxo(3-hydroquinazolin-2-ylthio)]-N-indan-5-ylacetamide] the IC50 [1] was 5 to 25 µM and the CC50 [1] was no less than 100 µM.

`O=C(CSc1nc2c(F)cccc2c(=O)n1-c1ccc(Cl)c(Cl)c1)Nc1ccc2c(c1)CCC2` [Example C37, 2-[3-(3,4-dichlorophenyl)-8-fluoro-4-oxo(3-hydroquinazolin-2-ylthio)]-N-indan-5-ylacetamide] showed an IC50 [1] of 5 to 25 µM and a CC50 [1] of 10 to 50 µM.

In the case of `O=C(CSc1nc2ccccc2c(=O)n1-c1cc(F)cc(F)c1)Nc1ccc2c(c1)CCC2` [Example C38, 2-[3-(3,5-difluorophenyl)-4-oxo(3-hydroquinazolin-2-ylthio)]-N-indan-5-ylacetamide], the IC50 [1] is reported as 5 to 25 µM and the CC50 [1] is reported as no less than 100 µM.

`O=C(CSc1nc2c(F)cccc2c(=O)n1-c1cc(Cl)cc(Cl)c1)Nc1ccc2c(c1)CCC2` [Example C39, 2-[3-(3,5-dichlorophenyl)-8-fluoro-4-oxo(3-hydroquinazolin-2-ylthio)]-N-indan-5-ylacetamide] gave an IC50 [1] of 5 to 25 µM and a CC50 [1] of 50 to 100 µM.

For `O=C(CSc1nc2ccccc2c(=O)n1-c1c(Cl)cccc1Cl)Nc1ccc2c(c1)CCC2` [Example C40, 2-[3-(2,6-dichlorophenyl)-4-oxo(3-hydroquinazolin-2-ylthio)]-N-indan-5-ylacetamide], the IC50 [1] was 5 to 25 µM and the CC50 [1] was no less than 100 µM.

In the case of `O=C(CSc1nc2ccccc2c(=O)n1-c1ccc(Cl)c(Br)c1)Nc1ccc2c(c1)CCC2` [Example C41, 2-[3-(3-bromo-4-chlorophenyl)-4-oxo(3-hydroquinazolin-2-ylthio)]-N-indan-5-ylacetamide], the IC50 [1] is reported as 5 to 25 µM and the CC50 [1] is reported as no less than 100 µM.

For `O=C(CSc1nc2c(F)cccc2c(=O)n1-c1ccccc1)Nc1ccc2c(c1)CCC2` [Example C42, 2-(8-fluoro-4-oxo-3-phenyl(3-hydroquinazolin-2-ylthio))-N-indan-5-ylacetamide], the IC50 [1] was 5 to 25 µM and the CC50 [1] was no less than 100 µM.

For `O=C(CSc1nc2ccccc2c(=O)n1-c1cc(F)c(F)cn1)Nc1ccc2c(c1)CCC2` [Example C43, 2-[3-(4,5-difluoro(2-pyridyl))-4-oxo(3-hydroquinazolin-2-ylthio)]-N-indan-5-ylacetamide], the IC50 [1] was 5 to 25 µM and the CC50 [1] was no less than 100 µM.

Work on `O=C(CSc1nc2ccccc2c(=O)n1-c1ccc(Cl)c(Cl)c1)Nc1nc(-c2ccccc2)cs1` [Example C45, 2-[3-(3,4-dichlorophenyl)-4-oxo(3-hydroquinazolin-2-ylthio)]-N-(4-phenyl(1,3-thiazol-2-yl))acetamide] yielded an IC50 [2] of less than 1 µM, a CC50 [2] of no less than 100 µM and an IC50 [3] of less than 1 µM. For the same compound, the CC50 [3] was 50 to 100 µM.

Compound `O=C(CSc1nc2ccccc2c(=O)n1-c1ccc(Cl)c(Cl)c1)Nc1ccc2scnc2c1` [Example C46, N-benzothiazol-5-yl-2-[3-(3,4-dichlorophenyl)-4-oxo(3-hydroquinazolin-2-ylthio)]acetamide] has an IC50 [2] of 1 to 5 µM and a CC50 [2] of no less than 100 µM.
